Common to all, as to assay type: in vivo
The subject of test [1] is Heterozygous GAT-HRA corn. Nature of the test: Preemergence test of ALS herbicides on corn (fresh weight, visual injury). Particulars: 200 g/ha, mean of four replications; for Fresh Weight: fresh shoots weighed 4 weeks after treatment; for % Visual Injury: 0% no injury, 100% plant death.
The test system of test [2] is parent elite stiff stalk inbred corn. Described as above. Conditions: 200 g/ha, mean of four replications; for Fresh Weight: fresh shoots weighed 4 weeks after treatment; for % Visual Injury: 0% no injury, 100% plant death.
For test [3] the test system is unchanged. As to the kind of experiment: Postemergence test of herbicides on corn (fresh weight, visual injury).
Test [4] has as its system Heterozygous GAT-HRA corn. Described as above. Conditions: for Fresh Weight: fresh shoots weighed 2 weeks after treatment.
[5] abbreviates: 200 g/ha, 0% no injury, 100% plant death, mean of four replications.
Setting [6] is: 200 g/ha, fresh shoots weighed 2 weeks after treatment, mean of four replications.
[7] abbreviates: 200 g/ha, mean of four replications.

On to `CCOc1nc(F)cc2nc(S(=O)(=O)Nc3c(Cl)cccc3C(=O)OC)nn12` [Chloransulam-methyl, methyl 3-chloro-2-[[(5-ethoxy-7-fluoro-[1,2,4]triazolo[1,5-c]pyrimidin-2-yl)sulfonyl]amino]benzoate], for which the “Fresh Weight” value was 44.9 g in test [1], 5.5 g in test [2], 6.8 g in test [3] (setting [6]) and 104.4 g in test [4] (setting [7]). Also, the “% Visual Injury” value stood at 96% in test [3] (setting [5]) and 3% in test [4] (setting [5]).

`CCOc1nc(NC)nc(NC(=O)NS(=O)(=O)c2ccccc2C(=O)OC)n1` [Ethametsulfuron-methyl, methyl 2-[[[[[4-ethoxy-6-(methylamino)-1,3,5-triazin-2-yl]amino]carbonyl]amino]sulfonyl]benzoate]: the “% Visual Injury” value worked out at 88% in test [1], 100% in test [2], 96% in test [3] (setting [5]) and 6% in test [4] (setting [5]). The “Fresh Weight” value came to 1.6 g in test [2], 5.6 g in test [3] (setting [6]) and 98.0 g in test [4] (setting [7]).

`COc1nn(C(=O)NS(=O)(=O)c2ccccc2OC(F)(F)F)c(=O)n1C` [Flucarbazone Na^+, 4,5-dihydro-3-methoxy-4-methyl-5-oxo-N-[[2-(trifluoromethoxy)phenyl]sulfonyl]-1H-1,2,4-triazole-1-carboxamide]: the “% Visual Injury” value in test [1] is recorded as 40%; in test [2], 100%; in test [3] (setting [5]), 100%; in test [4] (setting [5]) it was 14%. Further, the “Fresh Weight” value in test [1] is recorded as 48.8 g; in test [2], 0.0 g; in test [3] (setting [6]), 3.1 g; in test [4] (setting [7]), 86.0 g.

Regarding `COC(=O)c1ccc(C(F)(F)F)nc1S(=O)(=O)NC(=O)Nc1nc(OC)cc(OC)n1` [Flupyrsulfuron-methyl Na^+, methyl 2-[[[[(4,6-dimethoxy-2-pyrimidinyl)amino]carbonyl]amino]sulfonyl]-6-(trifluoromethyl)-3-pyridinecarboxylate], the “% Visual Injury” value in test [1] came out at 90%; in test [2], 87%; in test [3] (setting [5]), 95%; in test [4] (setting [5]) it was 4%. Also, the “Fresh Weight” value in test [1] is 45.8 g; in test [2] it was 23.6 g; in test [3] (setting [6]), 5.2 g; in test [4] (setting [7]), 95.5 g.

For `CP(=O)(O)CCC(N)C(=O)O` (stereo not shown) [Glufosinate ammonium], the “% Visual Injury” value is 99% in test [3] (1870 g/ha) and 1% in test [4] (1870 g/ha). In test [3] (1870 g/ha, 2 weeks after treatment), the “Fresh Weight” value came to 2.4 g.

Consider `COC(=O)c1c(Cl)nn(C)c1S(=O)(=O)NC(=O)Nc1nc(OC)cc(OC)n1` [Halosulfuron-methyl, methyl 3-chloro-5-[[[[(4,6-dimethoxy-2-pyrimidinyl)amino]-carbonyl]amino]sulfonyl]-1-methyl-1H-pyrazole-4-carboxylate], for which the “% Visual Injury” value in test [1] was found to be 15%; in test [2] it was 30%; in test [3] (setting [5]), 14%; in test [4] (setting [5]), 8%.

With `COC(=O)c1ccc(I)cc1S(=O)(=O)NC(=O)Nc1nc(C)nc(OC)n1` [Iodosulfuron-methyl Na^+, methyl 4-iodo-2-[[[[(4-methoxy-6-methyl-1,3,5-triazin-2-yl)amino]carbonyl]amino]sulfonyl]benzoate], the “% Visual Injury” value is 5% in test [1], 92% in test [2], 100% in test [3] (setting [5]) and 1% in test [4] (setting [5]). Also, the “Fresh Weight” value was 52.5 g in test [1], 24.4 g in test [2], 3.5 g in test [3] (setting [6]) and 95.0 g in test [4] (setting [7]).

As to `COC(=O)c1cccc(C)c1S(=O)(=O)NC(=O)Nc1nc(OCC(F)(F)F)nc(N(C)C)n1` [Triflusulfuron-methyl], in test [3] (setting [6]), the “Fresh Weight” value came out at 2.1 g.

For the compound Imazamethabenz-methyl, the “Fresh Weight” value in test [4] (setting [7]) is 95.0 g.

The values above are taken from patent publication US8203033B2, “Methods and compositions for providing tolerance to multiple herbicides” (Pioneer Hi-Bred International, Inc., priority 2005, dated 2012).
